These results are taken from paper PMC12706144, “Potential Antidiabetic Inhibitors and Antimicrobials from the Fungus Fusarium lichenicola Isolated from the Cicada Cryptotympana mandarina Distant, 1891” (Journal of Microbiology and Biotechnology, 2025).

Assay [1] has as its system Gram-positive and Gram-negative bacteria and fungi. The conditions noted are these: cited from earlier work.
Assay [2] relates to S. aureus, B. subtilis, E. coli, and Klebsiella pneumoniae. As to conditions: cited from earlier work.
Assay [3] deals with S. aureus, B. subtilis, E. coli, S. cerevisiae. The conditions noted are these: cited from earlier work.
In assay [4] the test system is various bacterial pathogens. Further details: method as in PMID 34394014. The conditions noted are these: cited from earlier work.
Another assay addresses α-glucosidase (Saccharomyces cerevisiae, UniProt P53341). In kind it is biochemical. The conditions noted are these: Table 4, reference compounds, independent experiment; read-out: IC50, α-Glucosidase inhibition.
The next assay concerns the target T1, α-amylase (Sus scrofa, UniProt P00690).
T1 sequence (P00690 16-511): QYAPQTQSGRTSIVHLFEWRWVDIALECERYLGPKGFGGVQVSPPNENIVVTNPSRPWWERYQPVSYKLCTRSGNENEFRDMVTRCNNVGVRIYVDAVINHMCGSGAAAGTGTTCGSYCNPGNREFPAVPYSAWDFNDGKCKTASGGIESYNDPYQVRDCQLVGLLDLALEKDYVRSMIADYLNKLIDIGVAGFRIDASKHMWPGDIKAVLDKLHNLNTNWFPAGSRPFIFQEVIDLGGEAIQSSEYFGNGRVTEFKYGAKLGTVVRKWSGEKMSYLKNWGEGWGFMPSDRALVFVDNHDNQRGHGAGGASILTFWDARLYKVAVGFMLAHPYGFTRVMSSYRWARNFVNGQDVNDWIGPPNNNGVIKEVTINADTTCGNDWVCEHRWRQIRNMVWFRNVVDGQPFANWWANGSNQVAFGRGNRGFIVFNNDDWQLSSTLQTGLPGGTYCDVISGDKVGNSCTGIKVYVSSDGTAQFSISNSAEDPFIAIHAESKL
Nature of the assay: α-Amylase inhibitory assay (starch azure). In kind it is biochemical. The conditions noted are these: Table 4, reference compounds, independent experiment; read-out: IC50, α-Amylase inhibition.

Sequence of α-glucosidase (P53341 whole entry, looked up): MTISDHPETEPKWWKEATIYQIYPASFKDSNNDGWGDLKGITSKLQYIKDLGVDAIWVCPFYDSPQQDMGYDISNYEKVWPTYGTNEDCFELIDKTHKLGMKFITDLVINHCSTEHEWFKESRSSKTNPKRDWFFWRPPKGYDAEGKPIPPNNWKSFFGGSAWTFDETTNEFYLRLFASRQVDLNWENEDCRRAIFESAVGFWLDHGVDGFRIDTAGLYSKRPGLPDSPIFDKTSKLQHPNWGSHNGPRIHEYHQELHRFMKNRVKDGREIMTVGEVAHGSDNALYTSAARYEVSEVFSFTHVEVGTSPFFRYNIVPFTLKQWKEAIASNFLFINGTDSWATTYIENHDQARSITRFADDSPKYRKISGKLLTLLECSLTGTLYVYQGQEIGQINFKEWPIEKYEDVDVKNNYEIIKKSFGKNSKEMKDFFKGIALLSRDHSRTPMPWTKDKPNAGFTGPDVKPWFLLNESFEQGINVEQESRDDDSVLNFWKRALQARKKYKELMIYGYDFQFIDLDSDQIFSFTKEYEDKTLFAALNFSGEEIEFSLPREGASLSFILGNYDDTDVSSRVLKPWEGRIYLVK

As for `CCCCCC/C=C\CCCCCCCC(=O)O` [C22, Palmitoleic acid], in assay [1], the antimicrobial activity entry is listed as “antimicrobial activity”.

Turning to `CCCCCCCCCCCCCCCC(=O)O` [C21, n-Hexadecanoic acid], in assay [2], the antibacterial effects entry is “good antibacterial effects”.

In the case of `C=C(C)C1CC=C(C)CC1` (stereo not drawn) [C4, 4-Isopropenyl-1-methylcyclohexene], the MICs in assay [3] is 0.5 to 1.0 µg/mL.

The IC50 is the concentration at which inhibition is half-maximal. In the case of `CSSSC` [C11, Dimethyltrisulfane], in assay [4], the antimicrobial activity entry is “promising antimicrobial activity”. The figures for the IC50 at α-glucosidase and at α-amylase were 462 ± 44 µM and 332 ± 23 µM, respectively.
